We go through six compounds from patent US20240108577A1, “CONTROLLED RELEASE OF […] A SOURCE MATERIAL” (Syqe Medical Ltd., priority 2022, published 2024).

Series [1] can be described thus: Pre-packaging refrigeration stability of ground MC powder (5° C.±2° C., up to 12% RH), LOD and U-HPLC of phytocannabinoids. Format: physicochemical. The conditions noted are these: for change in phytocannabinoid concentration during storage: up to 3 months, one-way ANOVA. The protocol:
In the described experiment, Bedrocan strain MC powder was stored at 5° C.±2° C. with up to 12% relative humidity (RH) in a polypropylene container, sealed in an aluminum foil pouch (Oliver-Tolas Healthcare Packaging B.V.; Venray, Netherlands). In order to assess its stability during the handling and hold time, samples were taken from three separate growing batches and assayed at baseline and at 1, 2 and 3 months post grinding. Each sample was assayed for loss on drying (LOD), and of the concentrations of the major phytocannabinoids (CBDA, CBD, CBGA, CBN, THCA and THC).
(§1) Analysis of cannabis inflorescences for the main phytocannabinoids (CBDA, CBD, CBGA, CBN, THCA and THC) was performed as follows: 100 mg of ground Cannabis inflorescences were weighed in duplicate from one container and extracted with 25 mL methanol then sonicated for 40 min and centrifuged at 3000 rpm for 5 min. All samples were filtered through a 0.22 μm PP filter vail prior to analysis. The dilution and quantitation were preformed corresponding to calibration curves. The main six phytocannabinoids were analyzed by ultra-high-performance liquid chromatography (UHPLC: […]) system with a refrigerated auto-sampler, thermostatic column oven and ultraviolet detector, Waters ACQUITY UPLC H-Class. Chromatographic separation was achieved using UPLC column Waters Acquity C18, 1.7 μm particles, 2.1×150 mm maintained at 30° C. The phytocannabinoids were separated using a gradient elution with mobile phases of 0.1% (v/v) formic acid in double-distilled water (phase A) and acetonitrile (phase B), respectively. A constant flow rate of 0.4 mL/min was employed throughout. The gradient profile varied from 70% to 100% B in 10.5 min, held for 0.5 min in these conditions and then returned to the initial conditions.
(§2) For THC and CBD, the concentrations of the acid and its neutral counterpart were summed and reported as the total content. For example, the concentration of total THC […] was calculated as: Total THC=THCA*0.877+THC, with 0.877 being the molar ratio between the two compounds that corrects for a change in the mass of THCA as a result of the loss of CO2 (decarboxylation). This is shown in FIG. 7A: “U-HPLC analysis of the Bedrocan cultivar”.
(§3) R software (V.1.1.463) with tidyverse (17) package was used to analyze changes in outcome measures by one way ANOVA test, using Fisher's exact test analysis. All analyses were followed by a Tukey post-hoc test for multiple comparison. Data are presented as Mean±95% confidence interval (CI). Differences were considered significant at the p<0.05 level.

Series [2] is described as follows: Long-term stability of ground cannabis packaged in Syqe cartridges at 25° C.±2° C. (RH 60%±5%), LOD and U-HPLC. Format: physicochemical. The conditions noted are these: for change in phytocannabinoid amount during storage: RH 60%, up to 24 months, one-way ANOVA. The protocol:
(§4) In some embodiments, once cartridges are produced, they are stored, distributed and used at RT. In order to assess the shelf life of such cartridges, a long-term stability study was performed, during which cartridges were stored at 25° C.±2° C. (RH 60%±5%) in a calibrated and certified stability chamber (Memmert Constant climate chamber HPP260). 9, 6, 9, 8, 7, 4 and 4 separate growing batches were tested at baseline and after 3, 6, 9, 12, 18 and 24 months, respectively. At each time point samples of the ground inflorescence within the cartridges were analyzed for LOD and for the amount (mg) of each of the major phytocannabinoids (CBDA, CBD, CBGA, CBN, THCA and THC). Of the same batches, THC aerosolized by the Syqe inhaler was analyzed at baseline and at 6, 9, 18 and 24 months.
as §1, §2, §3

Series [3] can be described thus: Stability of Syqe cartridges stored at 30° C.±2° C. (65% RH±5% RH), LOD and U-HPLC. Format: physicochemical. Particulars: for change in phytocannabinoid amount during storage: 65% RH, up to 6 months, one-way ANOVA; for amounts detected at all time points: BL to 6 months. The protocol: Additionally, to assess the effects of a warmer temperature on MC, Syqe cartridges were stored post-production at an elevated temperature and humidity of 30° C.±2° C. (65% RH±5% RH). Three different growing batches were analyzed at baseline and at 1, 2, 4 and 6 months of storage.
as §1, §2, §3

Series [4] in a line: Heating of ground cannabis samples to target temperatures 60-150° C.; vaporized THC measured in aerosol, residual terpenes by GC/MS. Format: physicochemical. Particulars: 135 mg ground cannabis, THC measured in the aerosol, FIG. 6A. The protocol:
The vaporization plots in FIGS. 6A-B show results of an experiment performed by the inventors in which samples of 135 mg of ground cannabis were heated to several target temperatures, including 60° C., 70° C., 80° C., 90° C., 100° C., 110° C., 120° C., 130° C., 140° C. and 150° C. At each of the target temperatures, vaporized THC was measured in the aerosol. At each of the target temperatures, the residual mass of ground cannabis was analyzed using Gas Chromatography-Mass Spectrometry (GC/MS) to determine existence of terpenes, such as: Linalool, Isopulegol, Geraniol, Caryophyllene, […] Humulene<alpha-> and Nerolidol. The total terpenes residue (as remaining in the ground cannabis) is indicated by the dashed line in FIG. 6A. Based on the residual mass of terpenes, the released (vaporized) amount terpenes was calculated, by subtracting the measured residual mass from a respective reference mass.
As can be observed from FIG. 6A, THC (indicated by the continuous line) release started at a target temperature of 130 degrees C., and increased with the rising of the target temperature (up to 150 degrees C.).

Series [5] in a line: THC dose aerosolized by the Syqe inhaler from cartridges stored at 25° C. up to 24 months. The format is physicochemical. The conditions noted are these: for aerosolized THC dose: inhaler set to 500 μg THC, mean±95% CI. The protocol:
as §4
In some embodiments, the Syqe inhaler is preprogrammed with several distinct heating protocols. In some embodiments, each heating protocol is tailored to heat a VC and deliver an aerosol containing 250, 500, 750 or 1,000 μg or intermediate, larger or smaller amounts of THC to the user. In some embodiments, THC serves as an indicator for dose selection and is optionally delivered with an entourage of phytocannabinoids, terpenes and other molecules of the whole inflorescence that vaporize into the aerosol with it. […] Other dosage amounts are also to be contemplated, any may also serve as optimal dosing, depending on the need. For example, dosage amounts of between 50-5000 μg Δ^9-THC, 200-1000 μg Δ^9-THC, 50-500 μg Δ^9-THC, 1000-5000 μg Δ^9-THC, or intermediate, higher or lower ranges.
In the framework of the two-year stability study, samples were also taken for aerosolization using the Syqe Inhaler. The Syqe Inhaler was set to aerosolize 500 μg THC doses, in accordance with some embodiments. Data is provided only for time points in which three or more batches were tested (namely, BL and 6, 9, 18 and 24 months). […] BL, 6-, 9-, 18-, and 24-months' values were 484.76±31.28n, 486.30±50.56n, 563±22.06 μg, 597.94±16.75 μg and 554.67±36.00 μg, respectively. All aerosolized THC doses were well within the 500 μg±25% range (i.e., 375-625 μg) that apply to pharmaceutical grade inhalers (16).

For series [6] the following is noted: after four years, room temperature (22 C), light or darkness (conditions A and B); cited from earlier work.

Consider `CCCCCc1cc2c(c(O)c1C(=O)O)[C@@H]1C=C(C)CC[C@H]1C(C)(C)O2` (relative stereo) [THCA, (−)-Δ^9-trans-tetrahydrocannabinolic acid], for which, in series [1], the “change in phytocannabinoid concentration during storage” value is “no significant change”. Moreover, the “change in phytocannabinoid amount during storage” value in series [2] (25° C.) and in series [3] was “decreased significantly” each time.
For `CCCCCc1cc(O)c2c(c1)OC(C)(C)c1ccc(C)cc1-2` [CBN, Cannabinol], the “change in phytocannabinoid concentration during storage” value in series [1] is on record as “no significant change”. Besides, the “change in phytocannabinoid amount during storage” value in series [2] (25° C.) and in series [3] was “increased significantly” each time.
For the compound `C=C(C)[C@@H]1CCC(C)=C[C@H]1c1c(O)cc(CCCCC)c(C(=O)O)c1O` [CBDA, Cannabidiolic acid], the “change in phytocannabinoid concentration during storage” value in series [1] is reported as “no significant change”. In addition, in series [2] (25° C.), the “change in phytocannabinoid amount during storage” value is given as “no significant change”. In addition, the pre-storage amount in series [2] (before storage) is listed as not above 0.006 mg/sample. Moreover, the “amounts detected at all time points” value in series [3] is reported as “mostly undetected”.
Take `C=C(C)[C@@H]1CCC(C)=C[C@H]1c1c(O)cc(CCCCC)cc1O` [CBD, Cannabidiol, reference compound]: the “concentration detected at all time points” value in series [1] (BL to 3 months) is “mostly undetected”; in series [2] (25° C., BL to 24 months), “mostly non-detected”. Further, the “amounts detected at all time points” value in series [3] is “mostly undetected”.
As to `CCCCCc1cc(O)c(C/C=C(\C)CCC=C(C)C)c(O)c1C(=O)O` [CBGA, Cannabigerolic acid], the “change in phytocannabinoid concentration during storage” value in series [1] was “no significant change”. Also, the “change in phytocannabinoid amount during storage” value in series [2] (25° C.) and in series [3] was “decreased significantly” in each case.
For `CCCCCc1cc(O)c2c(c1)OC(C)(C)[C@@H]1CCC(C)=C[C@@H]21` [THC, (−)-Δ^9-trans-tetrahydrocannabinol], the “target temperature at which THC release started” value in series [4] is 130 degrees C. Also, in series [1], the “change in phytocannabinoid concentration during storage” value was “no significant change”. The “change in phytocannabinoid amount during storage” value is “increased” in series [2] (25° C.); “increased significantly” in series [2] (25° C., listed as Δ^9-THC); “increased significantly” in series [3]. The “aerosolized THC dose” value stood at 486.30±50.56 n in series [5] (6 months at 25° C.); 563 ± 22.06 µg in series [5] (9 months at 25° C.); 597.94 ± 16.75 µg in series [5] (18 months at 25° C.); 554.67 ± 36.00 µg in series [5] (24 months at 25° C.); 484.76±31.28 n in series [5] (BL). Besides, the “range within which all aerosolized THC doses remained” value in series [5] (BL to 24 months at 25° C., 500 μg±25%) fell in the range of 375 to 625 µg. Moreover, the THC degraded in series [6] is recorded as approximately 100%.
